From patent US20240261274A1, “TREATMENT OF MYC-DRIVEN CANCERS WITH GSPT1 DEGRADERS” (MONTE ROSA THERAPEUTICS, INC., priority 2021, published 2024)

Legend:
[1] = target: T1, Full length wild-type cereblon CRBN (Homo sapiens, UniProt Q96SW2); assay: Fluorescence polarization (FP) assay indicating cereblon binding; conditions: bounds stated; read-out: IC50 value
T1 construct: Full length wild-type cereblon CRBN (80.0 nM, 10 μL) was incubated in assay buffer
Experimental: Compound activity was monitored in a fluorescence polarization (FP) homogeneous assay using 1-[5-({2-[2-(2-{[2-(2,6-dioxopiperidin-3-yl)-1,3-dioxo-2,3-dihydro-1H-isoindol-4-yl]oxy}acetamido)ethoxy]ethyl}carbamoyl)pentyl]-3,3-dimethyl-2-[(1E,3E)-5-[(2E)-1,3,3-trimethyl-5-sulfo-2,3-dihydro-1H-indol-2-ylidene]penta-1,3-dien-1-yl]-3H-indol-1-ium-5-sulfonate as a fluorescent probe. Unless otherwise stated, all reagents were purchased from Sigma Aldrich. Enzymatic reactions were conducted in Perkin-Elmer Black 384 well ProxiPlate Plus (catalogue no. 6008269) in 10 μL total volume. Full length wild-type cereblon CRBN (80.0 nM, 10 μL) was incubated in assay buffer containing 20 mM HEPES (pH 8.0), […], 0.5 mM TCEP and 0.05% Tween 20 in the presence or absence of compound (300 nL). Inhibitors were stored as 10 mM DMSO stocks in an inert environment (low humidity, dark, low oxygen, room temperature) using the Storage Pod System. Compounds and DMSO were dispensed using the Echo E5XX (Labcyte Inc. USA) to give concentrations from 300 to 0.937 or 3000 to 9.3 nM in a 12 data point curve. […] Following incubation at room temperature for 30 min, the assay was initiated by dispensing the probe to a final concentration of 5 nM (2.5 nL of a 20 μM stock) using the Echo E5XX. FP was measured after a period of 12 hours using a Pherastar plate reader (BMG Labtech, Germany) exciting at 590 nm and measuring the amount of parallel and perpendicular light at 675 nm. The FP signal was subsequently normalized to the no-compound control (i.e., DMSO). Analysis and IC50 values were derived using Dotmatics (Dotmatics UK) software.

[2] = test system: HMEC engineered to express c-Myc tagged with EGFP; assay: 3D spheroid assay, myc-HMEC (CellTiterGlo3D); format: cell-based; conditions: Homo sapiens, bounds (codes D and E), read-out: EC50 value
Experimental: Human mammary epithelial cells (HMEC) were engineered to express either c-Myc tagged with EGFP or EGFP alone (non myc) (analogous but distinct from Kessler J D et al, Science. 2012 Jan. 20; 335(6066):348-53. doi: 10.1126/science.1212728; Hsu T Y et al, Nature. 2015 Sep. 17; 525(7569):384-8. doi: 10.1038/nature14985). The engineered cells were seeded at 1000 (myc) or 4000 (non myc) cells/well in a 384 ultra-low attachment plate in a total volume of 40 μL HMEC cell culture media (DMEM/F12+10% HI-FBS+15 mM HEPES+0.5 ug/ml Hydrocortisone+10 ug/ml Insulin+20 ng/ml EGF). Plates were spun at 1200 rpm for 5 minutes at room temperature to ensure that cells have gathered in the middle of the well and incubated at 37° C. for 48 hrs before firing with compounds. On Day 2 (48 h post seeding) cells were imaged (brightfield and EGFP fluorescence) using the Celigo imaging cytometer prior to firing compounds. For primary screens, compounds were added at three concentrations (1.25, 10 and 30 uM) in a volume of 120 nL using the ECHO acoustic dispenser and spun at 2000 rpm for 2 minutes at room temperature before incubating at 37° C. for 5 days. […] On Day 7, prior to measuring cell viability using CellTiterGlo3D, cells were imaged (brightfield and EGFP fluorescence) on the Celigo imaging cytometer. The CellTiterGlo3D reagent is added at 30 uL/well and incubated at room temperature for 30 mins. After 30 mins of incubation, luminescence readings were recorded using the Perkin Elmer EnVision reader.

IKZF1 = target: T2, IKZF1 (Homo sapiens, UniProt Q13422+Q96SW2); assay: Selectivity western blot assay in MM1 S cells, IKZF1; format: cell-based; design: key: A represents no degradation observed at 30 μM; B represents trace degradation at 30 μM (below 20%); C represents weak degradation at 30 μM (below 50%); D represents degradation at 30 μM (>90%); E represents degradation at 3 μM (>90%); F represents degradation at 0.3 μM (>90%); conditions: MM1 S cells, 0.3, 3 and 30 μM, 6 hours
T2 construct: endogenous in cells; host or cells: MM1 S (ATCC CRL-2974)
Experimental: (§1) MM1 S cells were purchased from ATCC (cat. Number CRL-2974), sub-cultured in 90% RPMI 1640 with 10% FBS, supplemented with 1×P/S and incubated at 37° C., 5% CO2. Compounds were stored as 10 mM DMSO stock. For the assay, MM1 S cells (3 million cells/well) were plated in 6-well plates and incubated over night. Cells were treated with respective compounds using a serial dilution: 0.3 μM, 3 μM and 30 μM as well as a vehicle only (DMSO) control for 6 hours. Media with suspension cells was subsequently transferred to 15 mL conical tubes, wells rinsed twice with ice-cold PBS and merged with cell suspension in respective 15 mL conical tube. Cells were spinned down, supernatant aspirated, pellets resuspended in ice-cold PBS and transferred to microtubes. Cells were spinned down, supernatant aspirated and pellets resuspended in 120 μL RIPA lysis buffer supplemented with protease and phosphatase inhibitors. Cell lysates were incubated on ice for 20 minutes followed by centrifugation at >20,000×g for 5 min. Supernatants were transferred to fresh microtubes and stored at −80° C. Total protein concentration was determined using a BCA assay with a BSA standard curve and concentration of all samples was adjusted to 1 mg/mL. 25 μL 4×LDS sample buffer supplemented with 100 mM DTT was added to 75 μL sample. Samples were centrifuged (8,000×g, 1 min) and incubated at 95° C. for 5 min followed by another centrifugation step (8,000×g, 1 min). 20 μL of each sample was loaded on a 4-12% gel alongside a protein molecular weight marker. Gels were run in the presence of MOPS buffer at 80 Volts for 30 min, followed by 120 Volts for 1.5 h and proteins subsequently transferred onto nitrocellulose membranes at 20 Volts for 7 min using an iBlot2 Gel Transfer Device. Membranes were then cut horizontally into two pieces, covering 80-50 kDa and 50-25 kDa. Blocking the membranes was performed by gently shaking in 5% (w/v) skim milk in TSB-T for 1 hr at room temperature. All primary antibodies were used at a 1/1000 in 5% (w/v) BSA dissolved in TBST and incubated with membranes over night at 4° C. After three washes with 1×TBST for 5 min, HRP-coupled secondary antibodies diluted in 5% (w/v) BSA/TBST (Goat Anti-Rb IgG, dil. 1/10,000; Goat Anti-Mouse IgG, dil. 1/5000) were added for 1 hr at room temperature. After three washes with 1×TBST (5 minutes each), membranes were incubated with ECL reagent for 1 min at room temperature. Chemiluminescence signals were then detected using a LAS-4000 system with default settings and signals quantified using Image Studio Lite software (version 5.2). Membrane parts previously incubated with antibody against CK1 alpha were stripped off antibodies by incubating with stripping buffer for 30 minutes followed by three washed with TBST (5 min each), blocking with 5% (w/v) skim milk for 1 hr, and incubation with primary antibody against uGAPDH overnight at 4° C. Subsequent washes, incubation with secondary antibody and signal acquisition were performed as described above.

IKZF3 = target: T3, IKZF3 (Homo sapiens, UniProt Q96SW2+Q9UKT9); assay: Selectivity western blot assay in MM1 S cells, IKZF3; format: cell-based; design: key: A represents no degradation observed at 30 μM; B represents trace degradation at 30 μM (below 20%); C represents weak degradation at 30 μM (below 50%); D represents degradation at 30 μM (>90%); E represents degradation at 3 μM (>90%); F represents degradation at 0.3 μM (>90%); conditions: MM1 S cells, 0.3, 3 and 30 μM, 6 hours
T3 construct: endogenous in cells; host or cells: MM1 S (ATCC CRL-2974)
Experimental: as §1

CK1alpha = target: T4, CK1alpha (Homo sapiens, UniProt P48729+Q96SW2); assay: Selectivity western blot assay in MM1 S cells, CK1alpha; format: cell-based; conditions: MM1 S cells, 0.3, 3 and 30 μM, 6 hours
T4 construct: endogenous in cells; host or cells: MM1 S (ATCC CRL-2974)
Experimental: as §1

ZFP91 = target: T5, ZFP91 (Homo sapiens, UniProt Q96JP5+Q96SW2); assay: Selectivity western blot assay in MM1 S cells, ZFP91; format: cell-based; conditions: MM1 S cells, 0.3, 3 and 30 μM, 6 hours
T5 construct: endogenous in cells; host or cells: MM1 S (ATCC CRL-2974)
Experimental: as §1

GSPT1 [3] = target: T6, GSPT1 (Homo sapiens, UniProt P15170+Q96SW2); assay: GSPT1 degradation immunofluorescence assay in CAL-51 cells; format: cell-based; design: endogenous in cells; host or cells: CAL-51 (DSMZ ACC302); conditions: 6 hours, Table 5A, read-out: Activity for GSPT1 degradation, Code (DC50)
Experimental: CAL-51 cells were purchased from DSMZ (cat. Number ACC302), sub-cultured in 90% Dulbecco's MEM (4.5 g/L glucose, Gibco 11965)+10% heat inactivated FBS (BioConcept, 2-01F1361) and incubated at 37° C., 5% CO2. For the assay, imaging microtiterplate Cell Carrier 96 Ultra (Perkin Elmer 6055302) were pre-coated with Fibronectin (Sigma F085, 30 μl at 0.2 μg/ml) in PBS (100 μl, Gibco 14190) for 45 min at room temperature, rinsed with PBS and CAL-51 cells (30K cells/well) were plated and let to adhere overnight. Cells were treated with compounds typically using a serial dilution ranging from 30 μM to 0.1 nM for 6 hours. Compounds were stored at 10 mM DMSO stocks. Vehicle (DMSO), positive (CC-885, 10 μM) and rescue controls (positive control plus 0.2 μM bortezomib) were also included at this stage. Cells were subsequently rinsed with PBS and fixed in 10% Formalin solution (50 μl, Sigma HT5011)) for 20 mins at room temperature. Following three consecutive PBS washes (100 μl), cells were permeabilized in 0.1% Triton X-100 in PBS (Sigma 93443, 50 μl) for 15 mins at room temperature. Following three further PBS washes, 50 μl blocking buffer (1% BSA, Sigma A4503, in PBS) was added for 45 min for signal-to-noise reduction. Primary antibody (human GSPT1, Sigma HPA052488) was diluted in blocking buffer (dil. 1/300, 35 μl/well) and incubated with the cells overnight at 4° C. After three PBS washes, Alexa-fluor 488 coupled secondary antibodies (Invitrogen, A32731, dil. 1/1000), Alexa-fluor 647-Phalloidin (Invitrogen, A22287, dil. 1/200) and DAPI (Thermo, #62248, dil. 1/1000) were diluted in blocking buffer and incubated with the samples for 2 hours at room temperature. After three final PBS washes, samples were conserved in 100 μl PBS in the dark, until measurement. Image acquisition was performed on the Operetta High-Content Imager (Perkin-Elmer). Fluorescence intensity of Alexa-Fluor 488 (GSPT1), Alexa-Fluor 647 (Actin) and DAPI (Nucleus) were measured. For the determination of GSPT1 DC50 values, a custom algorithm implemented in the PerkinElmer image analysis software Harmony-Acapella® was developed. After user-defined setting of adjustment parameters, the analysis was run identically without human intervention for all image fields. DAPI staining of the nuclei was used to determine the location of cells using standard nuclei detection modules. Segmentation artifacts were removed by threshold-based filters for area, roundness and intensity. The outline of the cells was determined analogously from the sum of the normalized, smoothed DAPI and Actin channel, starting from each nucleus. The Alexa-Fluor 488 (GSPT1) signal intensity in each cell was finally measured, in order to obtain a Mean intensity per cell. GSPT1 degradation (DC50) was calculated after normalization to controls and data import in CDD vault Database, using non-linear regression.

GSPT1 [4] = target: T6, GSPT1; assay: Selectivity western blot assay in MM1 S cells, GSPT1; format: cell-based; design: endogenous in cells; host or cells: MM1 S (ATCC CRL-2974); conditions: MM1 S cells, 0.3, 3 and 30 μM, 6 hours
Experimental: as §1

T1 sequence (Q96SW2 whole entry): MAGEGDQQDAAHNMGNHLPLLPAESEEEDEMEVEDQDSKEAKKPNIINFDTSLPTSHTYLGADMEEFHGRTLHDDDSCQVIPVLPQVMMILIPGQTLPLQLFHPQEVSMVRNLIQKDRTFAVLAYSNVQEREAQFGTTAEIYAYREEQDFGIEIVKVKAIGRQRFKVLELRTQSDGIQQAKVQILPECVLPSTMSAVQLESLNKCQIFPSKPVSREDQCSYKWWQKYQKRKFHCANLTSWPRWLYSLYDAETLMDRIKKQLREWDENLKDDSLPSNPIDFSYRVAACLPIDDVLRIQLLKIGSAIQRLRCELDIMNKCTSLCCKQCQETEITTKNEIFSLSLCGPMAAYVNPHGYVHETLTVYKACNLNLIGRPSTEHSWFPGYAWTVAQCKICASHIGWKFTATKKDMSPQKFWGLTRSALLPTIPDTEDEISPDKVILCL
T6 sequence (P15170 whole entry): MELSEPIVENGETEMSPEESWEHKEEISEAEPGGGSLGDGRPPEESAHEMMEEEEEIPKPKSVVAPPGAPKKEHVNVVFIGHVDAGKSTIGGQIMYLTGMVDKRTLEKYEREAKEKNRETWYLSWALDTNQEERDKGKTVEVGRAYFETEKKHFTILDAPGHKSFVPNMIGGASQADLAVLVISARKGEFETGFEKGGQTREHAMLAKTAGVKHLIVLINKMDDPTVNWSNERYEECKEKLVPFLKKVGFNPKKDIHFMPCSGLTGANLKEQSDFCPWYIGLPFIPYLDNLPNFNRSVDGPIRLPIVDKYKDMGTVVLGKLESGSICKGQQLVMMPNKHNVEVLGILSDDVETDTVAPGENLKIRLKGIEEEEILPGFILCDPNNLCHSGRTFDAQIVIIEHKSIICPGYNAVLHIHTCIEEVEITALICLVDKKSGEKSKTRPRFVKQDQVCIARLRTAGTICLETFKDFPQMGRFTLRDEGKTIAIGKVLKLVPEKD
T6 sequence (Q96SW2 whole entry): as the sequence (Q96SW2 whole entry) above
T6 sequence (Q16531 whole entry partner): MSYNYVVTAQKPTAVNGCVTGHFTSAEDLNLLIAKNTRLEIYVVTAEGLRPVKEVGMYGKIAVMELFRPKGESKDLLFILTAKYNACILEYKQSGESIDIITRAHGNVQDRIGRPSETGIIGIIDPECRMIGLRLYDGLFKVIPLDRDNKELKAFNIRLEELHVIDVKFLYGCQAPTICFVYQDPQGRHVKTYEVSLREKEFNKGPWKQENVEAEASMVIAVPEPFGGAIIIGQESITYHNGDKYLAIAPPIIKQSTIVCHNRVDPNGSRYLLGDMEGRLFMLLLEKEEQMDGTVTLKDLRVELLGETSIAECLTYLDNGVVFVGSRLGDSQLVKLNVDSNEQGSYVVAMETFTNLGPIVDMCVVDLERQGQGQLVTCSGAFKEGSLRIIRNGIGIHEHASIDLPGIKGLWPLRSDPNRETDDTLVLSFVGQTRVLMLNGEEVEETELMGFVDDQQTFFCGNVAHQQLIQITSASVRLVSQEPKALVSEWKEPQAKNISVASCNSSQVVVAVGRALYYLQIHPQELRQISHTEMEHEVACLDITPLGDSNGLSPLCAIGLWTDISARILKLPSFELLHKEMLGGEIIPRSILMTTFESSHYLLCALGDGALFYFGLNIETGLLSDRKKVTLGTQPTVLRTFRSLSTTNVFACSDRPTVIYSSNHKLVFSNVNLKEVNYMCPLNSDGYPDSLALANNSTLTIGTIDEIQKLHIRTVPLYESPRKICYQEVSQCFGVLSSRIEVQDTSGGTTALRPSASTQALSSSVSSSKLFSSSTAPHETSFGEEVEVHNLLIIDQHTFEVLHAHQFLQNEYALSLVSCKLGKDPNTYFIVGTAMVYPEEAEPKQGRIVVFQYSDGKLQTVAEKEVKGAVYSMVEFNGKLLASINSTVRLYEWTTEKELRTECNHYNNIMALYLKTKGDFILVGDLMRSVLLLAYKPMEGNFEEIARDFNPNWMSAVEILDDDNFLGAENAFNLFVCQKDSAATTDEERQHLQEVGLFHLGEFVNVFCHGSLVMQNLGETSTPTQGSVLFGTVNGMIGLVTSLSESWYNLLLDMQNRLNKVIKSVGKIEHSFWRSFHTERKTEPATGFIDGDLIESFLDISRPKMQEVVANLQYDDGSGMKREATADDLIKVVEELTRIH
T3 sequence (Q9UKT9 whole entry): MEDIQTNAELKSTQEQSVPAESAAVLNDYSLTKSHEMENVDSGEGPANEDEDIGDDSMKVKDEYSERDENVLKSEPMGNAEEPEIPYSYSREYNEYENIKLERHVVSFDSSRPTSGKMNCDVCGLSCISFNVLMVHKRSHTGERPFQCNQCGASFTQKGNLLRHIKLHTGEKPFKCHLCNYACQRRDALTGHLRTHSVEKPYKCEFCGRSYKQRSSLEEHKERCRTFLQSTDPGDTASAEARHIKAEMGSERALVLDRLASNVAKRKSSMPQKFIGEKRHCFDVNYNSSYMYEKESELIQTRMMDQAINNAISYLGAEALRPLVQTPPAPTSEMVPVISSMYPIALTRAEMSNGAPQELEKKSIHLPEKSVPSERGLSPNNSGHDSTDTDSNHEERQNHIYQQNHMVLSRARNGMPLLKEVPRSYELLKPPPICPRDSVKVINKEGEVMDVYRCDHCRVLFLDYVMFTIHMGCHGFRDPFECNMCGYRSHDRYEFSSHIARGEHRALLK
T3 sequence (Q96SW2 whole entry): as the sequence (Q96SW2 whole entry) above
T3 sequence (Q16531 whole entry partner): as the sequence (Q16531 whole entry partner) above
T4 sequence (P48729 whole entry): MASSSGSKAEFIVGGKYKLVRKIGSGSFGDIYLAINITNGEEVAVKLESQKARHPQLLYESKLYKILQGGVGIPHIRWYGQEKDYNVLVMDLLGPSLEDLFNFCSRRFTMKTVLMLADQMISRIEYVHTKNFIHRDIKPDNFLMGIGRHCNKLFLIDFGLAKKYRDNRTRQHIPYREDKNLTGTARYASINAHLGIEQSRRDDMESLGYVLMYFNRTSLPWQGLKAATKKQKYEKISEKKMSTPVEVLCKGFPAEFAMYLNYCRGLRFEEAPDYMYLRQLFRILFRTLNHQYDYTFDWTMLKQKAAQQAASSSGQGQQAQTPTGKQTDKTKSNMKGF
T4 sequence (Q96SW2 whole entry): as the sequence (Q96SW2 whole entry) above
T4 sequence (Q16531 whole entry partner): as the sequence (Q16531 whole entry partner) above
T2 sequence (Q13422 whole entry): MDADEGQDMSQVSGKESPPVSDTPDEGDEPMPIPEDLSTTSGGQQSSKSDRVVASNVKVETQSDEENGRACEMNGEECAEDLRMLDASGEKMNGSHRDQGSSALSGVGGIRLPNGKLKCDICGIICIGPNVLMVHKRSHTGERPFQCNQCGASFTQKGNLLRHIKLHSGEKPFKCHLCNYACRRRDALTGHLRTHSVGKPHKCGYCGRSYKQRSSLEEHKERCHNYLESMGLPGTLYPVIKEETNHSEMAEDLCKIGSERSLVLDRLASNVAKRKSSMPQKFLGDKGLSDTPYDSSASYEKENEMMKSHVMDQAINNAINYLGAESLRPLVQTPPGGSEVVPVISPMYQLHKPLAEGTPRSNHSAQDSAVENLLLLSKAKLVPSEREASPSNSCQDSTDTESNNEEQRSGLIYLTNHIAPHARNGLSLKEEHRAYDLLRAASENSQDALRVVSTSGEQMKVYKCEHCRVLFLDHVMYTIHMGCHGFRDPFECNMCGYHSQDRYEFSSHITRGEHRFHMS
T2 sequence (Q96SW2 whole entry): as the sequence (Q96SW2 whole entry) above
T2 sequence (Q16531 whole entry partner): as the sequence (Q16531 whole entry partner) above
T5 sequence (Q96JP5 whole entry): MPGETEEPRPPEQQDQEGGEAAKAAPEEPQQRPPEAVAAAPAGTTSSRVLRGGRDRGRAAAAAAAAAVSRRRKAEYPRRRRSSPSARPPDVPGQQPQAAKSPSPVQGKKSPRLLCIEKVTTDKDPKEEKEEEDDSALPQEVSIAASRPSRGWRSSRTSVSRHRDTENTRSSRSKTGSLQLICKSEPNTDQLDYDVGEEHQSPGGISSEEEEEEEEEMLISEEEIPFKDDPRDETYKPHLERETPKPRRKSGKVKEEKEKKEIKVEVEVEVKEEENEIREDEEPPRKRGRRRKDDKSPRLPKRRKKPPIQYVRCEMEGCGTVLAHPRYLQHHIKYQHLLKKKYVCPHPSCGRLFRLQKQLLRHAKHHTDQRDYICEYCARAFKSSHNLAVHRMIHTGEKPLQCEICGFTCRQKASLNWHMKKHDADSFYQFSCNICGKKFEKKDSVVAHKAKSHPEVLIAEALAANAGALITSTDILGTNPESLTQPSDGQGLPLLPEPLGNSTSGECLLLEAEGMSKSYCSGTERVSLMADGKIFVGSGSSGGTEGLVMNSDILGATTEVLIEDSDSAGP
T5 sequence (Q96SW2 whole entry): as the sequence (Q96SW2 whole entry) above
T5 sequence (Q16531 whole entry partner): as the sequence (Q16531 whole entry partner) above

Row | Structure (SMILES) | IC50 [1] [nM] | EC50 [2] [nM] | further results
1 | Cc1cc(C)cc(NC(=O)NCc2ccc3c(c2)C(=O)N(C2CCC(=O)NC2=O)C3)c1 (stereo not shown) [Compound 20] | < 600 | ≤ 2000 | 
2 | CCc1cccc(NC(=O)NCc2ccc3c(c2)C(=O)N(C2CCC(=O)NC2=O)C3)c1 (stereo not shown) [Compound 31] |  | ≤ 2000 | 
3 | O=C1CCC(N2Cc3ccc(CNC(=O)Nc4ccc(Cl)c(Cl)c4)cc3C2=O)C(=O)N1 (stereo not shown) [Compound 46] | < 600 | ≤ 2000 | 
4 | O=C1CCC(N2Cc3ccc(CNC(=O)Nc4cccc(C(F)(F)F)c4)cc3C2=O)C(=O)N1 (stereo not shown) [Compound 47] | < 600 | ≤ 2000 | 
5 | COc1ccc(NC(=O)NCc2ccc3c(c2)C(=O)N(C2CCC(=O)NC2=O)C3)cc1Cl (stereo not shown) [Compound 59] | < 600 | ≤ 2000 | 
6 | Cc1ccc(NC(=O)NCc2ccc3c(c2)C(=O)N(C2CCC(=O)NC2=O)C3)cc1C (stereo not shown) [Compound 68] |  | ≤ 2000 | 
7 | O=C1CCC(N2Cc3ccc(COC(=O)Nc4cccc(OC(F)(F)F)c4)cc3C2=O)C(=O)N1 (stereo not shown) [Compound 203] |  |  | IKZF1 degradation (IKZF1): A; IKZF3 degradation (IKZF3): A; CK1alpha degradation (CK1alpha): B (B represents trace degradation at 30 μM (below 20%)); ZFP91 degradation (ZFP91): B (B represents trace degradation at 30 μM (below 20%)); DC50 (GSPT1 [3]): ≤ 30 nM; GSPT1 degradation (GSPT1 [4]): F (F represents degradation at 0.3 μM (>90%))
